Our source for the IC50 and melting point values is US7173129B2, “Sulfonamide-substituted chalcone derivatives and their use to treat diseases” (Athero Genics, Inc., priority 2003, dated 2007).

For one data set, the system named is VCAM-1. Briefly: In Vitro VCAM-1 Assay (TNF-α stimulated endothelial cells, cell-surface ELISA). It is filed as cell-based. The note with it: Homo sapiens, Endothelial cell, 16 h, primary human aortic (HAEC) or pulmonary (HPAEC) endothelial cells, TNF-α 1 ng/ml, approximately 16 hours, ELISA OD 450 nm. The protocol:
Cell Culture and compound dosing: Cultured primary human aortic (HAEC) or pulmonary (HPAEC) endothelial cells were obtained from Clonetics, Inc., and were used below passage 9. Cells were seeded in 96 well plates such that they would reach 90–95% confluency by the following day. On the following day the cells were stimulated with TNF-α (1 ng/ml) in the presence or absence of compounds dissolved in DMSO such that the final concentration of DMSO is 0.25% or less. To establish a dose curve for each compound, four concentrations in 2- to 5-fold increments were used. Cells were exposed to TNF-α and compounds for approximately 16 hours. The next day the cells were examined under microscope to score for visual signs of toxicity or cell stress.
Following 16 hr exposure to TNF-α and compound the media was discarded and the cells were washed once with Hanks Balanced Salt Solution (HBSS)/Phosphate buffered saline (PBS) (1:1). Primary antibodies against VCAM-1 (0.25 μg/ml in HBSS/PBS+5% FBS) were added and incubated for 30–60 minutes at 37° C. Cells were washed with HBSS/PBS three times, and secondary antibody Horse Radish Peroxidase (HRP)-conjugated goat anti-mouse IgG (1:500 in HBSS/PBS+5% FBS) were added and incubated for 30 minutes at 37° C. Cells were washed with HBSS/PBS four time and TMB substrate were added and incubated at room temperature in the dark until there was adequate development of blue color. The length of time of incubation was typically 5–15 minutes. 2N sulfuric acid was added to stop the color development and the data was collected by reading the absorbance on a BioRad ELISA plate reader at OD 450 nm. The results are expressed as IC50 values (the concentration (micromolar) of compound required to inhibit 50% of the maximal response of the control sample stimulated by TNF-α only).

`COc1cc(OC)c(-c2cccs2)cc1/C=C/C(=O)c1ccc(S(=O)(=O)Nc2ccc(F)cn2)cc1` [Example 11, 4-[3E-(2,4-Dimethoxy-5-thien-2-ylphenyl)acryloyl]-N-(5-fluoropyridin-2-yl)benzenesulfonamide] returned a melting point of 194 to 195 °C. In the data set on VCAM-1, this compound came in with an IC50 of under 5 µM.

`COc1cc(OC)c(-c2cccs2)cc1/C=C/C(=O)c1ccc(S(=O)(=O)Nc2ccc(C(F)(F)F)cn2)cc1` [Example 12, 4-[3E-(2,4-Dimethoxy-5-thien-2-ylphenyl)acryloyl]-N-(5-trifluoromethylpyridin-2-yl)benzenesulfonamide] registered a melting point of 228 to 229 °C. For the same compound, in the data set on VCAM-1, the IC50 was under 10 µM.

In the case of `COc1cc(OCC(CO)CO)c(/C=C/C(=O)c2ccc(S(=O)(=O)Nc3cc(C)on3)cc2)cc1-c1cccs1` [Example 13, 4-{3E-[2-(3-Hydroxy-2-hydroxymethylpropoxy)-4-methoxy-5-thien-2-ylphenyl]acryloyl}-N-(5-methylisoxazol-3-yl)benzenesulfonamide], the melting point was in the range of 165 to 166 °C. The compound also had an IC50 with VCAM-1 of over 10 µM.

The compound `COc1cc(OCCN2CCOCC2)c(/C=C/C(=O)c2ccc(S(=O)(=O)Nc3cc(C)on3)cc2)cc1-c1cccs1.Cl` [Example 14, 4-{3E-[4-Methoxy-2-(2-morpholin-4-yl-ethoxy)-5-thien-2-ylphenyl]acryloyl}-N-(5-methyl-isoxazol-3-yl)benzenesulfonamide hydrochloride] had a melting point of over 260 °C. This compound also registered an IC50 in the data set with VCAM-1 of under 5 µM.

Regarding `COc1cc(OC)c(-c2cc3ccccc3n2C)cc1/C=C/C(=O)c1ccc(S(=O)(=O)NCCN2CCOCC2)cc1` [Example 18, 4-{3E-[2,4-Dimethoxy-5-(1-methyl-1H-indol-2-yl)phenyl]acryloyl}-N-(2-morpholin-4-yl-ethyl)benzenesulfonamide], the melting point was 167 to 168 °C. In the data set with VCAM-1, the IC50 is under 10 µM.

`COc1cc(OC)c(-c2cccs2)cc1/C=C/C(=O)c1ccc(S(=O)(=O)NCc2cccnc2)cc1` [Example 19, 4-[3E-(2,4-Dimethoxy-5-thien-2-ylphenyl)acryloyl]-N-pyridin-3-ylmethylbenzenesulfonamide] gave a melting point of 167 to 168 °C. The compound further came in with an IC50 with VCAM-1 of under 5 µM.

In the case of `COc1cc(OC)c(-c2cccs2)cc1/C=C/C(=O)c1ccc(S(=O)(=O)NCCN2CCOCC2)cc1` [Example 20, 4-[3E-(2,4-Dimethoxy-5-thien-2-ylphenyl)acryloyl]-N-(2-morpholin-4-yl-ethyl)benzenesulfonamide], the melting point lay within 171 to 172 °C. The compound also had an IC50 in the data set on VCAM-1 of under 5 µM.

Turning to `COc1cc(OC)c(-c2cccs2)cc1/C=C/C(=O)c1ccc(S(=O)(=O)NN2CCCCC2)cc1` [Example 22, 4-[3E-(2,4-Dimethoxy-5-thien-2-ylphenyl)acryloyl]-N-piperidin-1-ylbenzenesulfonamide], the melting point is 174 to 176 °C. The compound also came in with an IC50 in the data set with VCAM-1 of over 10 µM.

The compound `COc1cc(OC)c(-c2cccs2)cc1/C=C/C(=O)c1ccc(S(=O)(=O)NCCCn2ccnc2)cc1` [Example 23, 4-[3E-(2,4-Dimethoxy-5-thien-2-ylphenyl)acryloyl]-N-(3-imidazol-1-ylpropyl)benzenesulfonamide] returned a melting point of 160 to 162 °C. Besides, the IC50 in the data set on VCAM-1 is under 5 µM.

`COc1cc(OC)c(-c2cccs2)cc1/C=C/C(=O)c1ccc(S(=O)(=O)NCC(F)(F)F)cc1` [Example 24, 4-[3E-(2,4-Dimethoxy-5-thien-2-ylphenyl)acryloyl]-N-(2,2,2-trifluoroethyl)benzenesulfonamide] gave a melting point of 167 to 168 °C. In the data set on VCAM-1, this compound registered an IC50 of under 5 µM.

Take `COc1cc(OC)c(-c2cccs2)cc1/C=C/C(=O)c1ccc(S(=O)(=O)NCC(=O)O)cc1` [Example 26, {4-[3E-(2,4-Dimethoxy-5-thien-2-ylphenyl)acryloyl]benzenesulfonylamino}acetic acid]: the melting point was in the range of 100 to 101 °C. Further, in the data set on VCAM-1, the IC50 is over 10 µM.
